What was measured:
[1] = test system: nitrification in soil (microbial biomass); test: Soil incubation test for inhibition of nitrification (Example 4); format: cell-based; details: n=4
Protocol: 100 g soil is filled into 500 ml plastic bottles (e.g. soil sampled from the field) and is moistened to 50% water holding capacity. The soil is incubated at 20° C. for two weeks to activate the microbial biomass. 1 ml test solution, containing the components of the mixture in the appropriate concentration (usually from 0.1 to 3% of nitrogen N), or DMSO and 10 mg nitrogen in the form of ammoniumsulfate-N is added to the soil and everything mixed well. Bottles are capped but loosely to allow air exchange. The bottles are then incubated at 20° C. for 0, 14 and 28 days.
For analysis, 300 ml of a 1% K2SO4-solution is added to the bottle containing the soil and shaken for 2 hours in a horizontal shaker at 150 rpm. Then the whole solution is filtered through a filter (Macherey-Nagel Filter MN 807%). Ammonium and nitrate content is then analyzed in the filtrate in an autoanalyzer at 550 nm (Merck, AA11).
The inhibition (NI@a specified concentration) is calculated as follows:
4 tests regarding the inhibition of nitrification were performed in each case (n=4).
The tested amounts were 0.3 and 1% by weight of component (ii) of the MOF relative to NH4—N.

[2] = test system: N2O emission; test: N2O inhibition in vegetation hall over 10 days using ammonium sulfate as fertilizer; details: 10 days cumulative
Text: N2O inhibition in vegetation hall over 10 days (cumulative values) using AS (ammonium sulfate) as fertilizer: […]

[3] = test system: nitrification in soil Limburgerhof (microbial community); test: Soil incubation with inhibitor mixed into ammonium sulfate nitrate melt (Example 5); format: cell-based; details: after 14 days, added to ASS melt at 125° C.
Protocol: The MOF of Example 3 was tested as follows in terms of the inhibition of nitrification: The nitrification inhibition capacity was tested after incubation of soil. In the experiment 50 g soil (soil Limburgerhof with pH (CaCl2)) 6, 73% sand, 23% silt, 4% clay, which is classified according to FAO as sandy loam) was filled into 250 ml plastic bottles and was moistened to 50% water holding capacity. The soil was incubated at 20° C. for about one week prior to the experiments to activate the microbial community. Ammonium sulfate nitrate (ASS) was heated to 125° C. in presence of 4% water. After the ASS had melted, Zinc-5-Ethoxy-3-Methyl-Pyrazolate or the underlying pyrazole compound was added and was mixed in for 1 minute. Afterwards, the melted ASS was poured onto a metal plate and cooled down to room temperature. Depending on treatment, 26.3 mg the treated ASS were milled and added to the soil and everything was mixed well. […] The fertilizer amount used for the experiment was calculated to contain 5 mg nitrogen in the form of ammonium sulfate-N(NH4—N)). […] Ammonium and nitrate content is then analyzed in the filtrate using an autoanalyzer. Ammonium was quantified via an indophenol blue dye at 660 nm, and nitrate via an azo dye at 540 nm. The nitrification inhibition is expressed as % of NH4—N recovery from fertilized NH4—N-(100%) after subtraction of unfertilized control soil.

[4] = Evaporation of active ingredient in thermogravimetric analyzer; format: physicochemical; details: during 1 hour at 30° C.; continuous flow of N2 gas
Protocol: The evaporation of 5-ethoxy-3-methyl-1H-pyrazole and the corresponding Zn MOF of 5-ethoxy-3-methyl-1H-pyrazole, i.e. Zinc-5-Ethoxy-3-Methyl-Pyrazolate, has been measured in a thermogravimetric analyzer instrument by the following procedure. A few milligrams of the test substance were positioned on the probe of the thermogravimetric analyzer, in a continuous flow of N2 gas. After equilibrating the system to 30° C., the weight of the sample was monitored over a time period of 65 minutes at a temperature of 30° C.

[5] = 0.3 wt.-% of pyrazolate relative to NH4—N, after 14 days
[6] = 0.3 wt.-% of pyrazolate relative to NH4—N, after 28 days
[7] = 1.0 wt.-% of pyrazolate relative to NH4—N, after 14 days
[8] = 1.0 wt.-% of pyrazolate relative to NH4—N, after 28 days

Row | % loss (evaporation of active ingredient) [4] [%] | Compound | Reduction of NO3− production [1, 5] | Residual amounts of NH4 [1, 5] | Reduction of NO3− production [1, 6] | Residual amounts of NH4 [1, 6] | Reduction of NO3− production [1, 7] | Residual amounts of NH4 [1, 7] | Reduction of NO3− production [1, 8] | Residual amounts of NH4 [1, 8] | % Emission (N2O) ([2]; 0.3 wt.-% relative to NH4—N) [%] | % Inhibition (N2O) ([2]; 0.3 wt.-% relative to NH4—N) [%] | Emission cumulative minus background (N2O) ([2]; 0.3 wt.-% relative to NH4—N) | % Emission (N2O) ([2]; 1.0 wt.-% relative to NH4—N) [%] | % Inhibition (N2O) ([2]; 1.0 wt.-% relative to NH4—N) [%] | Emission cumulative minus background (N2O) ([2]; 1.0 wt.-% relative to NH4—N) | Residual amounts of NH4 (% of NH4—N recovery from fertilized NH4—N) ([3]; 0.3 wt.-% relative to NH4—N) [%] | Residual amounts of NH4 (% of NH4—N recovery from fertilized NH4—N) ([3]; 0.8 wt.-% relative to NH4—N) [%]
1 | – | COc1cc(C)n[nH]1 [5-Methoxy-3-Methyl-1H-Pyrazole] | 75 | 70 | 40 | 34 | 88 | 90 | 74 | 68 | 10.4 | 89.6 | 393 | 5.0 | 95.0 | 191 | – | –
2 | 5.6 | CCOc1cc(C)n[nH]1 [5-ethoxy-3-methyl-1H-pyrazole] | – | – | – | – | – | – | – | – | – | – | – | – | – | – | 45.4 | 57.0

From patent US20240309022A1, “Metal-Organic Frameworks with Pyrazole-Based Building Blocks” (BASF SE, priority 2021, published 2024)
